In patent US9676829B2, “Antibacterial polypeptides and use thereof” (Oslo Universitetssykehus HF, priority 2009, dated 2017):

What was measured:
Type in all cases: cell-based, Escherichia coli
E. coli ER2566 = experiment: UV radiation survival spot assay of dinQ variants; conditions: UV irradiation of 24 J/m2, compared with intact dinQ (pBK444)
Description: The spots in FIG. 22 represent E. coli ER2566 dilutions in the range of 100-10-5 (left to right). UV irradiation of 24 J/m2 was used to induce dinQ toxicity (right picture), and was compared to the unirradiated control assay (left picture). Control cells carry the vector plasmid (pKK232-8), and cells carrying the plasmid encoding intact dinQ (pBK444), were used as reference.
The spots FIG. 23 represent E. coli ER2566 dilutions in the range of 10^0-10^−5 (left to right). UV irradiation of 24 J/m2 was used to induce dinQ toxicity (right picture), and was compared to the unirradiated control assay (left picture). Control cells carry the vector plasmid (pKK232-8), and cells carrying the plasmid encoding intact dinQ (pBK444), were used as reference (see FIG. 23).

E. coli cells = experiment: Membrane depolarization, DiBAC4(3) uptake by flow cytometry after IPTG induction; conditions: 5 and 20 minutes after 1 mM IPTG
Experimental: Cells were grown to OD600≅0.4 in LB and then induced with IPTG to a final concentration of 1 mM. At 0, 5 and 20 minutes culture samples were diluted 1:10 in filtered AB minimal medium (Clark and MaalØe, 1967) +10 μg ml-1 DiBAC4(3) (Sigma-Aldrich). After 20 minutes incubation in the dark at room temperature, cells were analysed in a Flowcytometry LSRII (Becton Dickinson) equipped with an argon ion laser and a krypton laser (both Spectra Physics). DiBAC4(3) was detected in channel 580 using 488 nm laser. Parameters were collected as logarithmic signals. The two populations were easily separated in each staining experiment. The data obtained was analyzed by winMDI software.
To examine whether DinQ affects membrane polarization, the inventors tested the ability of E. coli cells with dinQ containing plasmids to take up the dye DiBAC4(3) [bis-(1,3-dibarbituric acid)-trimethine oxanol]. The dye enters cells upon membrane depolarization leading to increased fluorescence. Cells were taken 5 and 20 minutes after induction of DinQ expression with IPTG, incubated with DiBAC4(3) for 20 min and analyzed by flow cytometry (FIG. 9).

E. coli [1] = experiment: Small colony variant count after IPTG induction of dinQ ORF5; conditions: IPTG 1 mM
Experimental: E. coli capable of overexpressing dinQ ORFS were incubated (O/N, 37° C., 200 rpm) before subculturing to OD600=0.01 (LB, kan, tet, amp). After incubation (37° C., 200 rpm) to OD600=0.5 expression of the toxin was either induced with IPTG (1 mM) or not. At time points after the addition the bacteria were serially diluted (×10) and plated (LB, 2% agar). After incubation (16 h, 37° C.) the plates were counted. Colony size was estimated and those 10× smaller than a typical colony were counted as a small colony variant SCV (see FIG. 21).

agrB mutant BK4043 = experiment: Intracellular ATP concentration, luciferase-based assay; conditions: agrB mutant with up-regulated DinQ peptide vs wild type AB1157
Experimental: Aliquots of cells were harvested before and 20 minutes after induction with IPTG to a final concentration of 1 mM and washed once in 50 mM Tris-Acetate pH 7.75. ATP was extracted from washed cells by 1% (TCA) trichloraceticacid in 50 mM Tris-Acetate pH 7.75 for 10 minutes. Tris-acetate buffer (1 ml) was added 1:10 to obtain optimal pH of 7.75 before mixing with rL/L reagent (ENLITEN ATP assay, Promega) at room temperature. The amount of ATP extracted (RLU value) was measured with 20/20 Luminometer (Turner Designs) and related to the OD600 for each sample.
The effect of DinQ peptide on the intracellular ATP concentration was measured using a quantitative luciferase-based assay (see materials and methods for details). […] Extracts from uninduced and SOS-induced agrB cells and wild-type cells, AB1157, were analysed 20 minutes after exposure by UV irradiation (sublethal doses).

wild type E. coli = experiment: IPTG sensitivity spot assay, DinQ ORFs over-expressed from pET28b(+)
Experimental: A. IPTG sensitivity in strains plated on IPTG. An aliquot or serially diluted (10-1-10-5 cells ml-1) log-phase cultures of wild type E. coli with empty expression vector pET28b(+) or vector constructs with alternative DinQ ORFs were spotted onto LB plates containing no IPTG (left panel) or 0.6 mM IPTG (right panel). The […] indicates a toxic effect with DinQ ORF 2-5 when the translation is forced by IPTG induction.
Expression plasmids pET28b-ORF1, pET28b-ORF2, pET28b-ORF3, pET28b-ORF4 and pET28b-ORF5 contains the DinQ ORF1, ORF2, ORF3, ORF4 and ORFS open reading frames inserted in the NcoI-BamHI restriction sites of the pET28b(+) vector (Novagen).
The mechanism underlying the UV sensitive phenotype of DinQ in a multicopy situation or under upregulation in an agrB mutant is unknown. The dinQ gene contain two putative open reading frames in which one of the reading frames encode three putative start codons (ii-iv, see FIG. 1C). […] To examine if any of the open reading frames mediate the UV sensitivity each reading frame were cloned into the expression vector pET28b(+) and expressed under control of IPTG (FIG. 4A). […] Next, DinQ ORF […] expression was titrated with increasing concentrations of IPTG (FIG. 4C) showing that ORF IV is highly toxic to the cells at very low doses of IPTG induction. […]

E. coli [2] = experiment: Microscopy of E. coli overexpressing dinQ ORF5 upon IPTG induction; conditions: 4 h after IPTG 1 mM
Experimental: E. coli capable of overexpressing dinQ ORF5 were plated (LB agar 2%, kan, tet, amp) and incubated (O/N, 37° C.). A single colony was picked and grown (37° C., 16 h, 200 rpm) in liquid media (LB, kan, tet, amp). The culture was then adjusted to OD600=0.03 in fresh media (LB, kan, tet, amp) and allowed to grow (37° C., 16 h, 200 rpm) back to OD600=0.5 before induction with IPTG (1 mM). After incubation (4 h, 37° C., 200 rpm) an aliquot (200 μl) of the E. coli suspension was removed and fixed in MeOH (1 ml, −20° C.). After centrifugation (2000 rpm, 4° C., 5 min) the cells were aspirated and re-suspend in NaCl (0.9% in H2O). The samples were then spotted onto slides and allowed to dry (42° C.). The slides were then washed 3×H2O and allowed to air dry (RT) before microscopy (see FIG. 20).

Row | Substance | toxicity of the dinQ peptide upon UV induction (E. coli ER2566) | effect on membrane integrity / depolarization (DiBAC4(3) uptake) (E. coli cells) | also measured
1 | MIDKAIIVLKALIALLELIRFLLQLLN (G10K variant of dinQ ORF V peptide) | maintain the toxicity | – | –
2 | ORF3: amino acid sequence of the dinQ III polypeptide (ORF-III), 42 aa (MSKRMHSHSIAWRKRVIDKAIIVLGALIALLELIRFLLQLLN; listed as Escherichia coli) | – | rapid and dramatic effects on the membrane integrity | –
3 | MIDKAIIVLGALIALLELIRFLLQLLN (listed as Escherichia coli) [ORF5, DinQ ORF-V peptide with N-terminal Met, form translated from GUG start codon, 27 aa] | – | rapid and dramatic effects on the membrane integrity | colony phenotype after induction (E. coli [1]): appearance of small colony variants (SCV); effect on intracellular ATP (agrB mutant BK4043): impairs the energy supply in the form of ATP; effect on membrane integrity / depolarization (DiBAC4(3) uptake) (E. coli cells; listed as DinQ ORF5): most pronounced; toxic/growth inhibitory effect on IPTG plates (wild type E. coli; pET28b(+) constructs, IPTG induction, absence of UV): strong toxicity; effect on membrane integrity (ghost cells) by microscopy (E. coli [2]): damages membrane integrity
4 | MIDKAIIVLGAIVALLELIRFLLQLLN [L12I and I13V] | maintain the toxicity | – | –
5 | DinQ ORF2: amino acid sequence of the dinQ II polypeptide (ORF-II), 49 aa (MRRDRQWMSKRMHSHSIAWRKRVIDKAIIVLGALIALLELIRFLLQLLN; listed as Escherichia coli) | – | rapid and dramatic effects on the membrane integrity | –
6 | MIDKAIIVLGALIALLELIRFLIQLLN (L23I variant of dinQ ORF V peptide) | maintain the toxicity | – | –
7 | ORF4: amino acid sequence of the dinQ IV polypeptide (ORF-IV), 38 aa (MHSHSIAWRKRVIDKAIIVLGALIALLELIRFLLQLLN; listed as Escherichia coli) | – | rapid and dramatic effects on the membrane integrity | toxicity on titration with increasing concentrations of IPTG (wild type E. coli; very low doses of IPTG induction): highly toxic
8 | MIDKAIVVLGALIALLELIRFLLQLLN (I7V variant of dinQ ORF V peptide) | maintain the toxicity | – | –
